The values that follow come from US10561637B2, “Methods for treating angiogenesis related disorder” (KAOHSIUNG MEDICAL UNIVERSITY, priority 2017, dated 2020).

Data set [1] has as its system human EPCs. Briefly: Sulforhodamine B (SRB) cell proliferation assay in human EPCs. Format: cell-based. Conditions: 48th hour. As for the experimental part: (§1) Mitella formosana (Hayata) Masam. is a perennial herb of Saxifragaceae, a native plant of Taiwan. In the present invention, three kinds of tannin compounds, PGG, tellimagrandin I, and tellimagrandin II, found in the compounds extracted from Mitella formosana by using Bioassay-guided fractionation, inhibited the proliferation of EPCs in a concentration dependent manner. […] The results of tube formation assay confirmed that these three compounds (10 μM) inhibited the tube formation of EPCs in different degrees (FIG. 2B). […] Importantly, CAM-angiogenesis model and mice Matrigel-plus model were used to verify the anti-angiogenic effect of tellimagrandin II in vivo.

Data set [2] relates to human EPCs. Briefly: tube formation assay (capillary-like structures) in human EPCs. Type of data set: cell-based. Conditions: 5 and 10 μM, 24 hours, phase-contrast microscope.
Excerpt: The data of five independent experiments are expressed as the mean±mean standard deviation. As compared with the control group, * means p<0.05; *** means p<0.001.
as §1

Data set [3] has as its system human EPCs. The experiment in a line: lactate dehydrogenase (LDH) release assay in human EPCs. Type of data set: cell-based. Conditions: 10-20 μM, 24th hour.
Excerpt: The data of five independent experiments are expressed as the mean±mean standard deviation. As compared with the control group, * means p<0.05; ** means p<0.05; *** means p<0.001.
as §1

The next data set concerns chicken embryo. The experiment in a line: chorioallantoic membrane (CAM) angiogenesis assay. Format: in vivo. The note with it: CAM-angiogenesis model.
Excerpt: (§2) Sorafenib is a multiple kinase inhibitor, which is used as a positive control in the in vivo anti-angiogenesis assay.
as §1

The test system of the next data set is mice. Briefly: Matrigel plug model of capillary formation. Type of data set: in vivo.
Excerpt: as §2, §1

“Also recorded” adds a separate entry of the source.

Turning to `O=C(O[C@H]1[C@@H]2OC(=O)c3cc(O)c(O)c(O)c3-c3c(cc(O)c(O)c3O)C(=O)OC[C@H]2OC(O)[C@@H]1OC(=O)c1cc(O)c(O)c(O)c1)c1cc(O)c(O)c(O)c1` (some centres unmarked) [tellimagrandin I], in the data set with human EPCs [1], the “proliferation of EPCs” value is listed as “suppress the proliferation of EPCs in a concentration dependent manner”.

For the compound `O=C(OC1O[C@@H]2COC(=O)c3cc(O)c(O)c(O)c3-c3c(cc(O)c(O)c3O)C(=O)O[C@H]2[C@H](OC(=O)c2cc(O)c(O)c(O)c2)[C@H]1OC(=O)c1cc(O)c(O)c(O)c1)c1cc(O)c(O)c(O)c1` (some centres unmarked) [tellimagrandin II], the “proliferation of EPCs” value in the data set with human EPCs [1] is listed as “suppress the proliferation of EPCs in a concentration dependent manner; also recorded: exhibited the most potent effect”. The “tube formation of EPCs, concentration dependence” value in the data set with human EPCs [2] is “inhibited the tube formation of EPCs in a concentration dependent manner”. The “LDH release (cytotoxicity)” value in the data set on human EPCs [3] is listed as “LDH release was not induced”. Moreover, the “in vivo neovascularization in the chicken embryo” value in the data set with chicken embryo is listed as “inhibited in vivo neovascularization in the chicken embryo in a concentration dependent manner”. Also, the “formation of capillaries in mice” value in the data set on mice is given as “effectively inhibited the formation of capillaries in mice”.

`O=C(OC[C@H]1O[C@@H](OC(=O)c2cc(O)c(O)c(O)c2)[C@H](OC(=O)c2cc(O)c(O)c(O)c2)[C@@H](OC(=O)c2cc(O)c(O)c(O)c2)[C@@H]1OC(=O)c1cc(O)c(O)c(O)c1)c1cc(O)c(O)c(O)c1` [PGG, 1,2,3,4,6-penta-O-galloyl-β-D-glucose]: the “proliferation of EPCs” value in the data set with human EPCs [1] is on record as “suppress the proliferation of EPCs in a concentration dependent manner”. Also, in the data set on human EPCs [2], the “tube formation of EPCs, concentration dependence” value is reported as “inhibited the tube formation of EPCs in a concentration dependent manner”.
